How the values were obtained:
[1] = tested on: p21 induction in HCT116 cells; test: p21 induction in HCT116 cells; assay type: cell-based; settings: Homo sapiens, HCT-116, 24 h, HCT116 cells, 24 h compound incubation; read-out: P21_EC50
Outline: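 HCT116 cells, 2,000/well, treated 24 h at 37 °C with 11-point compound dilutions in duplicate. Fixed, then immunostained for p21 and GAPDH and read by near-IR imaging at 800/700 nm. Normalized to DMSO (low) and reference WRN inhibitor (high) controls; EC50 from non-linear regression.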

[2] = molecular target: WRN (BV08), human Werner helicase (Uniprot Q14191, amino acids 517-1235 with L1074F point mutation) (Homo sapiens (Human), UniProt Q14191, L1074F); test: WRN (BV08) ADP-Glo assay; assay type: biochemical; settings: class symbols A-E, read-out: ADP-Glo_hWRN_IC50
Sequence of WRN (BV08), human Werner helicase (Uniprot Q14191, amino acids 517-1235 with L1074F point mutation) (Q14191 other isoform, or with tags, fused parts or gaps L1074F (already in the parent)): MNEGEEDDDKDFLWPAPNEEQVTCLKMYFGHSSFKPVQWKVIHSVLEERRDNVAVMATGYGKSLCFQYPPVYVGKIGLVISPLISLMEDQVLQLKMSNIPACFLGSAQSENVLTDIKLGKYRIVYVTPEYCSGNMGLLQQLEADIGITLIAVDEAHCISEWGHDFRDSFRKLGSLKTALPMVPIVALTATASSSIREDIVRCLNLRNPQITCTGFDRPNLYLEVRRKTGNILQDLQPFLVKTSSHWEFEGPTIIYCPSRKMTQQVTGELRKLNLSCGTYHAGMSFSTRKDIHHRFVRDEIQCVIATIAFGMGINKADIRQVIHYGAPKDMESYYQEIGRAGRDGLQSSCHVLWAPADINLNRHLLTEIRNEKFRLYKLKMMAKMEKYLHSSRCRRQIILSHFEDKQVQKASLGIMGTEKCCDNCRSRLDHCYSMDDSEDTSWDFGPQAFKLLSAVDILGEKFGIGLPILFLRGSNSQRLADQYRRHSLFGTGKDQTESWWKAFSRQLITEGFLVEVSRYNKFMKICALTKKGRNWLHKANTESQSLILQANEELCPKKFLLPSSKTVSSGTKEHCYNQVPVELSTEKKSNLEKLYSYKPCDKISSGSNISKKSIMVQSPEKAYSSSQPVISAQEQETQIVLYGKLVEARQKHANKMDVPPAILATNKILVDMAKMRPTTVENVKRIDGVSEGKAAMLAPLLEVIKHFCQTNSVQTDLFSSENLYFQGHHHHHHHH

Row | Structure (SMILES) | EC50 [1] [µM] | IC50 [2] [µM]
1 | CCc1c(N2CCN(C(=O)c3ncnc(C)c3O)CC2)c(=O)c2nc(-c3ccnc(OC)c3)c(C)nc2n1CC(=O)Nc1ccc(C(F)(F)F)cc1Cl [I-65, N-(2-chloro-4-(trifluoromethyl)phenyl)-2-(6-ethyl-7-(4-(5-hydroxy-6-methylpyrimidine-4-carbonyl)piperazin-1-yl)-2-(2-methoxypyridin-4-yl)-3-methyl-8-oxopyrido[2,3-b]pyrazin-5(8H)-yl)acetamide] | > 5 | 0.005 to 0.05
2 | CCc1c(N2CCN(C(=O)c3ncnc(C)c3O)CC2)c(=O)c2nc(N3CC(OC)C3)cnc2n1CC(=O)Nc1ccc(C(F)(F)F)cc1Cl [I-66, N-(2-chloro-4-(trifluoromethyl)phenyl)-2-(6-ethyl-7-(4-(5-hydroxy-6-methylpyrimidine-4-carbonyl)piperazin-1-yl)-2-(3-methoxyazetidin-1-yl)-8-oxopyrido[2,3-b]pyrazin-5(8H)-yl)acetamide] | 2 to 5 | 0.005 to 0.05
3 | CCc1c(N2CCN(C(=O)c3c(O)cccc3O)CC2)c(=O)c2ncc(C)nc2n1CC(=O)Nc1ccc(C(F)(F)F)cc1Cl [I-67, N-(2-chloro-4-(trifluoromethyl)phenyl)-2-(7-(4-(2,6-dihydroxybenzoyl)piperazin-1-yl)-6-ethyl-3-methyl-8-oxopyrido[2,3-b]pyrazin-5(8H)-yl)acetamide] | > 5 | 0.005 to 0.05
4 | CCc1c(N2CCN(C(=O)c3ncc4c(c3O)OCC4)CC2)c(=O)c2ncc(C)nc2n1CC(=O)Nc1ccc(C(F)(F)F)cc1Cl [I-68, N-(2-chloro-4-(trifluoromethyl)phenyl)-2-(6-ethyl-7-(4-(7-hydroxy-2,3-dihydrofuro[3,2-c]pyridine-6-carbonyl)piperazin-1-yl)-3-methyl-8-oxopyrido[2,3-b]pyrazin-5(8H)-yl)acetamide] | > 5 | 0.005 to 0.05
5 | CCc1c(N2CCN(C(=O)c3ncc4c(c3O)CCO4)CC2)c(=O)c2ncc(C)nc2n1CC(=O)Nc1ccc(C(F)(F)F)cc1Cl [I-69, N-(2-chloro-4-(trifluoromethyl)phenyl)-2-(6-ethyl-7-(4-(4-hydroxy-2,3-dihydrofuro[2,3-c]pyridine-5-carbonyl)piperazin-1-yl)-3-methyl-8-oxopyrido[2,3-b]pyrazin-5(8H)-yl)acetamide] | > 5 | 0.005 to 0.05
6 | CCc1c(N2CCN(C(=O)c3cccc4oc(=O)[nH]c34)CC2)c(=O)c2ncc(C)nc2n1CC(=O)Nc1ccc(C(F)(F)F)cc1Cl [I-70, N-(2-chloro-4-(trifluoromethyl)phenyl)-2-(6-ethyl-3-methyl-8-oxo-7-(4-(2-oxo-2,3-dihydrobenzo[d]oxazole-4-carbonyl)piperazin-1-yl)pyrido[2,3-b]pyrazin-5(8H)-yl)acetamide] | > 5 | 0.005 to 0.05
7 | CCc1c(N2CCN(C(=O)c3c(O)ccc4nc[nH]c34)CC2)c(=O)c2ncc(C)nc2n1CC(=O)Nc1ccc(C(F)(F)F)cc1Cl [I-71, N-(2-chloro-4-(trifluoromethyl)phenyl)-2-(6-ethyl-7-(4-(6-hydroxy-1H-benzo[d]imidazole-7-carbonyl)piperazin-1-yl)-3-methyl-8-oxopyrido[2,3-b]pyrazin-5(8H)-yl)acetamide] | > 5 | 0.005 to 0.05
8 | CCc1c(N2CCN(C(=O)c3ncnc(C)c3O)CC2)c(=O)c2nc(N(C)CCOC)cnc2n1CC(=O)Nc1ccc(C(F)(F)F)cc1Cl [I-72, N-(2-chloro-4-(trifluoromethyl)phenyl)-2-(6-ethyl-7-(4-(5-hydroxy-6-methylpyrimidine-4-carbonyl)piperazin-1-yl)-2-((2-methoxyethyl)(methyl)amino)-8-oxopyrido[2,3-b]pyrazin-5(8H)-yl)acetamide] | > 5 | 0.005 to 0.05
9 | CCc1c(N2CCN(C(=O)c3ncnc(C)c3O)CC2)c(=O)c2nc(N(C)CCO)cnc2n1CC(=O)Nc1ccc(C(F)(F)F)cc1Cl [I-73, N-(2-chloro-4-(trifluoromethyl)phenyl)-2-(6-ethyl-7-(4-(5-hydroxy-6-methylpyrimidine-4-carbonyl)piperazin-1-yl)-2-((2-hydroxyethyl)(methyl)amino)-8-oxopyrido[2,3-b]pyrazin-5(8H)-yl)acetamide] | > 5 | 0.005 to 0.05

Reference: patent US20250034136A1 (Nimbus Wadjet, Inc., priority 2023, published 2025)
